The record followed here is patent US20230202975A1 (Recordati Industria Chimica e Farmaceutica S.p.A., priority 2021, published 2023).

Holding throughout (format): physicochemical
Data set [1] is described as follows: Bulk density and tapped density (Ph. Eur. 2.9.34), Hausner ratio. Particulars: average of three samples, after drying under vacuum. The method, then:
Bulk density and Tapped density: were measured according to the method of pharmacopoeia (Ph. Eur. 2.9.34). 100 g of sample was weighed and then placed in the test tube, noting the apparent volume without any type of treatment to the sample. Afterwards, 10, 500 and 1250 taps are made using the automatic volumeter (Model: Schleuniger JV2000, Equipment code: CE9), noting the apparent volumes obtained in these three tests. In the event that the difference between the volume obtained for the 500 and 1250 taps was greater than 2 ml, the operation was repeated in increments of 1250 taps until the difference within measurements is less than or equal to 2 ml. For each batch the test was carried out in duplicate.
The bulk density and tapped density were calculated according to the following equations: […]
where m is the amount of sample weighed expressed in grams and V0 is the apparent uncompacted volume expressed in milliliters. Tapped density:
Another parameter relevant for evaluating powder flowability is the Hausner ratio namely the ratio between tapped and bulk densities. Generally, a Hausner ratio of higher than 1.50 indicates a very poor flowability (Powder properties in food production systems, Handbook of Food Powders, Ed.: Bhesh Bhandari, Nidhi Bansal, Min Zhang, Pierre Schuck, Woodhead Publishing, 2013, chapter 12, page 298).

The nature of data set [2]: Particle size distribution (laser particle size analyser, Ph. Eur. 2.9.31). The method, then:
Particle size distribution was evaluated in line with European Pharmacopeia 2.9.31 with the instrument and according to sample preparation and test conditions reported in the following Table 3: […]

Data set [3] in a line: pH of aqueous solution (potentiometric). The following applies: 100 mg of sample dissolved in 10 ml of water. The method, then: Keys: ^1 pH was determined potentiometncally on a solution of 100 mg of sample dissolved in 10 ml of water; HPLC purity is expressed as area percentage (area of the peak/total area×100); DMT: 2,2-dimethylthiazolidine.

Consider `NCCS.O=C(O)C(O)C(O)C(=O)O` (stereo not shown) [Example 10A, Cysteamine Bitartrate], for which the Bulk density in data set [1] (listed as Cysteamine Bitartrate crystallized according to the process of the present inven) and in data set [1] (listed as Ex. 10A) was 0.301 g/mL in each case. In addition, the Tapped density in data set [1] (listed as Ex. 10A) worked out at 0.423 g/mL.

As to `NCCS.O=C(O)C(O)C(O)C(=O)O` (stereo not shown) [Example 10B, Cysteamine Bitartrate, reference compound], the Bulk density in data set [1] (listed as Cysteamine Bitartrate crystallized according to the prior art process (direct ad)) and in data set [1] (listed as Ex. 10B) was 0.279 g/mL each time. The Tapped density in data set [1] (listed as Ex. 10B) turned out to be 0.442 g/mL.

For the molecule `NCCS.O=C(O)C(O)C(O)C(=O)O` (stereo not shown) [Example C1, Cysteamine Bitartrate], in data set [2], the “Particle Size, compliance with specification D50 <150 mic” value was around 65% and the “Particle Size, compliance with specification D90 <450 mic” value was “(100%)”.

Take `NCCS.O=C(O)C(O)C(O)C(=O)O` (stereo not shown) [Example C2, Cysteamine Bitartrate]: in data set [2], the “Particle Size, compliance with specification D50 <150 mic” value was around 55% and the “Particle Size, compliance with specification D90 <450 mic” value is “(100%)”.

Turning to `NCCS.O=C(O)C(O)C(O)C(=O)O` (stereo not shown) [Example C3, Cysteamine Bitartrate], in data set [2], the “Particle Size, compliance with specification D50 <150 mic” value is around 53% and the “Particle Size, compliance with specification D90 <450 mic” value is “(100%)”.

As to `NCCS.O=C(O)C(O)C(O)C(=O)O` (stereo not shown) [Example R1, Cysteamine Bitartrate], in data set [2], the “Particle Size, compliance with specification D50 <150 mic” value was “(100%)” and the “Particle Size, compliance with specification D90 <450 mic” value was “(100%)”.

In the case of `NCCS.O=C(O)C(O)C(O)C(=O)O` (stereo not shown) [Example R2, Cysteamine Bitartrate], in data set [2], the “Particle Size, compliance with specification D50 <150 mic” value was “(100%)” and the “Particle Size, compliance with specification D90 <450 mic” value is “(100%)”.

Consider `NCCS.O=C(O)C(O)C(O)C(=O)O` (stereo not shown) [Example R3, Cysteamine Bitartrate], for which, in data set [2], the “Particle Size, compliance with specification D50 <150 mic” value was “(100%)” and the “Particle Size, compliance with specification D90 <450 mic” value is given as “(100%)”.

Turning to Cysteamine Bitartrate [Example 2], the pH in data set [3] was found to be 3.53.
